Results from PubChem BioAssay AID2305 (GlaxoSmithKline (GSK), 2010).

Test system: P. falciparum 3D7 growth, pLDH absorbance
Assay: blood-stage malaria parasite growth potency – strain 3D7, dose response (AID 2305)

SMILES | IC50
CC(=O)Nc1ncc(C(=O)Nc2ccc(-c3cccc(-c4nc5ccc(F)cc5[nH]4)c3)cc2)s1 | 0.35 µM
COc1ccc(NC(=O)Nc2ccc(-c3ccncc3)c(C(F)(F)F)c2)cc1N1CCN(C)CC1 | 0.76 µM
CC(C)(C)c1ccc(CNC(=O)COc2ccc(-c3nnc(-c4cccc([N+](=O)[O-])c4)o3)cc2[N+](=O)[O-])cc1 | 0.93 µM
COc1ccc(Br)cc1C1Nc2ccc3ccccc3c2C2=C1C(=O)CC(c1ccccc1)C2 (stereo not drawn) | 0.59 µM
O=C(Nc1cccc(N2CCC(NCCCn3ccnc3)CC2)c1)c1cccc(C(F)(F)F)c1 | 1.11 µM
COc1cc(C)ccc1N1CCN(CCCCNC(=O)c2ccc(NC(=O)c3ccc(Cl)cc3)cc2)CC1 | 0.7 µM
CN1CCc2cc(CN3C[C@]4(C)C[C@H]3CC(C)(C)C4)c(O)cc2C(c2ccccc2)C1 (stereo partly drawn) | 0.72 µM
COc1ccc2c(NN=CC=Cc3ccccc3)ccnc2c1 | 0.77 µM
N#Cc1cccc(Nc2cc(C(F)(F)F)nc(Nc3ccccc3)n2)c1 | 1.44 µM
O=C(/C=C/c1ccc(Cl)c(Cl)c1)NCCCCCN1CCC(CCNC(=O)/C=C/c2ccc(Cl)c(Cl)c2)CC1 | 0.56 µM
OCCN1CCN(C(=S)NC2CCCCC2)CC1 | 1.1 µM
O=C(Nc1cccc(CN2CCCN(Cc3ccc(O)cc3)CC2)c1)c1ccc(-c2ccccc2)cc1 | 0.34 µM
Cc1cc(=O)c2cc(Oc3ccc(OC(F)(F)F)cc3)ccc2[nH]1 | 0.99 µM
CN(C)Cc1ccc(-c2ccc(NC(=O)c3ccc4c(=O)n(Cc5ccccc5)cnc4c3)cc2)cc1 | 0.65 µM
COc1ccc2cc(C(c3nnnn3CC3CCCO3)N3CCc4ccccc43)c(=O)[nH]c2c1 (stereo not drawn) | 0.8 µM
CCC(C)CN1CCN(c2cc(NC(=O)c3cccs3)ccn2)C(C)C1 (stereo not drawn) | 1 µM
Cc1nccc2c(NC(=O)N[C@@H]3CCN(c4ncc(C(F)(F)F)cc4Br)C3)cccc12 | 0.36 µM
CN(C)CCCOc1c(C(C)(C)C)cc(-c2cc(C(C)(C)C)c(OCCCN(C)C)c(C(C)(C)C)c2)cc1C(C)(C)C | 0.27 µM
Cc1nc(C)c(-c2ccc(Oc3ccc(OC(F)(F)F)cc3)cc2)c(OC(=O)c2ccccc2)c1Cl | 0.18 µM
CCOc1ccc2c(NN=Cc3c4ccccc4cc4ccccc34)cc(C)nc2c1 | 1.07 µM
CC(C)Cc1c(O)nc(SCCN2CCOCC2)[nH]c1=O | 1.26 µM
O=C(Nc1nc2cc(S(=O)(=O)NCCCN3CCOCC3)ccc2n1CCCn1ccnc1)c1ccc(Cl)cc1 | 0.93 µM
C=CCOC(=O)N1CCC(CNCc2ccc(-c3cccc(-c4nc5ccc(F)cc5[nH]4)c3)cc2)C1 (stereo not drawn) | 0.14 µM
Cc1cc(NN=Cc2ccc(Cl)cc2)c2cc(F)ccc2n1 | 0.83 µM
CCN(CC(C)O)C(=O)c1ccc(-c2cccc(-c3nc4c(C)cccc4[nH]3)c2)cc1 (stereo not drawn) | 0.64 µM

SMILES | IC50
COc1coc(C(=O)NC2CCN(CC3(c4ccc(Cl)cc4)CCC3)CC2)c1OC | 0.16 µM
COc1cccc(CC(=O)N2CCC(n3c(C)nc4ccc(F)cc43)CC2)c1 | 0.91 µM
CN1CCCc2ccc(NC(=O)C=Cc3ccc(-c4ccc(F)cc4F)o3)cc2C1 | 0.52 µM
Cc1cc(Cl)c(S(=O)(=O)N(C)c2ccccc2)cc1OCC(=O)NC1CCCCC1 | 0.3 µM
COc1cccc(-c2cccc(NC(=O)C3CCN(Cc4ccc(O)cc4)CC3)c2)c1 | 1.03 µM
CCCCCCc1cc(Oc2c(I)cc(C[C@H](N)C(=O)O)cc2I)ccc1O | 0.91 µM
COc1ccc(NC(=O)c2ccc(OCCCCCCCOc3ccc(C(=O)Nc4ccc(OC)c(N5CCN(C)CC5)c4)cc3)cc2)cc1N1CCN(C)CC1 | 0.6 µM
CC(C)COc1cc(C(=O)Nc2cnc3ccccc3c2)ccc1[N+](=O)[O-] | 0.78 µM
CCN1CCC(N(Cc2ccc(-c3ccc(C(F)(F)F)cc3)cc2)C(=O)CCCCn2c(CCc3cccc(F)c3F)nc(=O)c3ccccc32)CC1 | 0.99 µM
CCCCCCN1CCCN(Cc2ccc(C(=O)Nc3cccc(CC)c3)cc2)CC1 | 0.67 µM
O=C(Nc1ccc(Cl)cc1C(=O)Nc1ccncc1)c1ccc(Cl)cc1Cl | 0.61 µM
O=c1cc(NCCCNC2CCOc3c(Cl)cc(Cl)cc32)[nH]c2ccccc12 (stereo not drawn) | 0.72 µM
COc1ccc2ncc(F)c(CCN3CC[C@@H](CNCc4ccc5c(c4C)OCCO5)C3)c2n1 | 1.03 µM
CCOC(=O)C1CCN(CCCNC(=O)/C(=C/C=C/c2cc3cc(Cl)c(Cl)cc3[nH]2)OC)CC1 | 1.04 µM
CN1CCC[C@H]1COc1ccc(CN2CC[C@H](NC(=O)c3ccc(Cl)c(Cl)c3)C2)cc1Cl | 1.15 µM
NCc1ccc(Nc2nccc(Nc3ccc(-c4ccccc4)cc3)n2)cc1 | 0.89 µM
CCN1CCN(CCNc2c3ccccc3nc3ccccc23)CC1 | 1.02 µM
COc1ccc(OC)c(NC(=O)c2c(-c3c(F)cccc3Cl)noc2C)c1 | 0.7 µM
CCCCN=C(N)Nc1ccc(OCCCOc2ccc(NC(N)=NCCCC)cc2)cc1 | 0.16 µM
NC(N)=Nc1nc(-c2cccc(NC(=O)C(F)(F)F)c2)cs1 | 1.05 µM
COc1ccc(CN2CCC(CNC(C)c3cccc4ccccc34)CC2)cc1 (stereo not drawn) | 0.18 µM
COc1ccc(C2CCN(CCCCNC(=O)c3ccc(NC(=O)c4ccc(Cl)cc4)cc3)CC2)c(C)c1 | 0.75 µM
CN(C)Cc1cccc2[nH]c(-c3csc(Cc4cc(Cl)ccc4OCc4ccccc4)n3)nc12 | 1.12 µM
Cc1[nH]c(CNCCCNc2cc(=O)c3ccccc3[nH]2)c(Br)c1Br | 1.04 µM
Fc1ccc(C=NNc2ccnc3ccccc23)cc1 | 0.71 µM

SMILES | IC50
COc1ccc(Oc2ccc(-c3c(C)[nH]c(C)cc3=O)cc2)cc1 | 0.61 µM
COC(=O)Cc1ccc(N)c2ccccc12 | 0.7 µM
CCn1c(SCc2ccc(F)cc2)nc2sc3c(c2c1=O)CCN(C)C3 | 0.25 µM
CN1CCC(N(Cc2ccc(N3CCN(Cc4c[nH]c5ccc(Cl)cc45)CC3)nc2)C2CC2)CC1 | 1 µM
CCc1ccc(C2CCN(CCCCNC(=O)c3ccc(NC(=O)c4ccc(Cl)cc4)cc3)CC2)c(OC(C)=O)c1 | 0.15 µM
FC(F)(F)c1ccc2nc(-c3ccc(-c4cccc(CNCc5ccccc5)c4)cc3)[nH]c2c1 | 0.22 µM
O=C(NCc1ccccc1)Nc1ccc(-c2ccc(-c3nc4ccc(C(F)(F)F)cc4[nH]3)cc2)cc1 | 0.67 µM
NCC1(c2nc(-c3ccc(Cl)c(O)c3)c(-c3ccncc3)[nH]2)CCCCC1 | 0.74 µM
O=C(Nc1ccc(C(F)(F)F)cc1)NC1CCN(c2ccnc3cc(Cl)ccc23)CC1 | 0.18 µM
c1ccc(Oc2ccc(Nc3ccnc4cc(-c5csc(CN6CCCCC6)n5)ccc34)cc2)nc1 | 0.58 µM
CC(CCCCCC(=O)Nc1ccc(CC(C)NCCc2cccc(Cl)c2)cc1)NCCc1cccc(Cl)c1 (stereo not drawn) | 0.95 µM
O=C(/C=C/c1ccc(Cl)c(Cl)c1)NCCCCCN1CCC(NC(=O)Nc2ccccc2F)CC1 | 0.84 µM
CC(C)CN(c1nc(C(=O)NNC(=O)[C@H](CC2CC2)NC(=O)c2cc3cc(OCCN4CCCCC4)ccc3o2)cs1)C1CC1 | 0.21 µM
NC(N)=Nc1nc(-c2cccc(NC(=O)CCCCCCCON3C(N)=NC(N)=NC34CCCCC4)c2)cs1 | 0.04 µM
Cc1ccccc1C1CCN(C2CCC(NC(=O)/C=C/c3ccc(OC(F)(F)F)cc3)CC2)CC1 (stereo not drawn) | 0.86 µM
Cc1ncccc1C(=O)Nc1ccc(-c2cccc(-c3nc4c(C)cccc4[nH]3)c2)cc1 | 0.73 µM
CC(=O)c1ccc2c(c1)[C@H](NC(=O)c1cccc(Cl)c1Cl)[C@@H](CO)C(C)(C)O2 | 0.69 µM
Cc1cccc2[nH]c(-c3cccc(-c4cccc(CN5CCCC5CN)c4)c3)nc12 (stereo not drawn) | 0.77 µM
Nc1nccc2ccc(-c3ccncc3)cc12 | 0.25 µM
Oc1ccccc1CCNC1CCc2ccccc2C1 (stereo not drawn) | 0.93 µM
CCOc1cc(C(=O)NCCc2ccc(Cl)c(Cl)c2)ccc1-c1nc2ccc(Cl)cc2[nH]1 | 0.89 µM
Cc1cc(-c2ccc3c(c2)CCN(CCC2CCC(NC(=O)/C=C/c4ccc(F)cc4)CC2)CC3)on1 (stereo not drawn) | 0.72 µM
Cc1cccc(C)c1N1CCN(C2CCC(NC(=O)/C=C/c3ccccc3)CC2)CC1 (stereo not drawn) | 1.18 µM
O=C(Nc1ccccc1Oc1ccccc1)NC1CCN(c2ccnc3cc(Cl)ccc23)C1 (stereo not drawn) | 0.17 µM
COc1cc(NC(=O)/C=C/c2ccccc2Cl)cc(OCCN2CCC(O)(c3ccccc3)CC2)c1 | 0.17 µM

SMILES | IC50
CC(=O)Nc1cccc(C(=O)Nc2ccc(-c3cccc(-c4nc5ccc(C(F)(F)F)cc5[nH]4)c3)cc2)c1 | 0.15 µM
Cc1cc(N(C)C)nc(Nc2ccc(NC(=O)Nc3ccccc3)cc2)n1 | 0.13 µM
COc1ccc(C(=O)CCC(=O)N(Cc2ccc(-c3ccc(CNCCc4ccc(S(C)(=O)=O)cc4)cn3)cc2)C2C[C@@H]3CC[C@H]2C3)cc1F (stereo partly drawn) | 0.93 µM
Oc1cccc2c1CC(NCc1ccccc1)CC2 (stereo not drawn) | 0.89 µM
CN1CCC(C(=O)Nc2ccc(-c3cccc(-c4nc5ccc(F)cc5[nH]4)c3)cc2)CC1 | 0.79 µM
COc1ccc(CC(=O)NC(CCCN2CCC(c3ccccc3)CC2)c2ccc(Cl)c(Cl)c2)cc1OC (stereo not drawn) | 1.05 µM
Cc1c(CN2CCCCC2)cccc1OCCCNc1nc(NCCc2ccc(O)cc2)nc(N2CCNCC2)n1 | 0.22 µM
Cc1cccc2[nH]c(-c3ccc(-c4cccc(NC(=O)c5cncn5C)c4)s3)nc12 | 0.64 µM
COc1ccc(-c2ccc3c(-c4ccc(F)cc4)cnc(N)c3c2)cn1 | 0.39 µM
Cn1cnc(CCNC(=O)c2cccc(-c3ccc(-c4nc5ccc(F)cc5[nH]4)cc3)c2)c1 | 0.94 µM
O=C(Cc1cccc(Cl)c1)Nc1cccc(-c2c[nH]c3nc(Nc4ccccc4)ncc23)c1 | 0.68 µM
O=C(Nc1ccc(-c2ccccc2)cc1)Nc1cccc(Cn2ncc(N3CCNCC3)c(Cl)c2=O)c1 | 0.46 µM
CC(C)(C)SCC(O)Cn1c2ccc(Br)cc2c2cc(Br)ccc21 (stereo not drawn) | 1 µM
COc1cc2nc(Nc3ccc(N4CCOCC4)cc3)nc(N)c2cc1OC | 0.87 µM
O=c1cc(NCCCNCc2sc(Br)c(Br)c2Br)[nH]c2ccccc12 | 1.01 µM
CC1(C)N=C(N)N=C(N)C1c1ccc(Cl)c(Cl)c1 (stereo not drawn) | 0.03 µM
N#Cc1ccc(N[C@@H](CC2CCCCC2)C(=O)Nc2ccc(-c3ccccc3)cc2)c2ccccc12 | 0.6 µM
COc1ccccc1CNC(=O)c1cc(OC)c(OC)cc1NC(=O)c1cccs1 | 1.44 µM
COc1cc(C(=O)N2COCC(CCCN3CCC(N4CCCC4)CC3)(c3ccc(Cl)c(Cl)c3)C2)cc(OC)c1OC (stereo not drawn) | 0.78 µM
Cc1ccc(-n2c(C)nc3c(Nc4ccc(-c5ccncc5)cc4)ncnc32)c(C)c1 | 0.1 µM
CCC(=C(CC)c1ccc(O)c(CNC2CCCCC2)c1)c1ccc(O)c(CNC2CCCCC2)c1 | 0.15 µM
COc1cccc2sc(Nc3nc(-c4ccccn4)cs3)nc12 | 0.8 µM
N#Cc1ccc(-n2cc(C(=O)Nc3ccc4c(c3)CCN(C3CCC3)CC4)c(C(F)(F)F)n2)cc1 | 0.29 µM
